We go through two compounds from publication PMC5784979, “Direct comparison of the four aldehyde oxidase enzymes present in mouse gives insight into their substrate specificities” (PLoS ONE, 2018).

Usually Km stands for the substrate concentration at which the rate is half of its maximum.

In this experiment the target is T1, mAOX4 (Mus musculus, UniProt Q3TYQ9).
T1 construct: gene Aox4; recombinant from E. coli TP1000 (plasmid pMAOX4), Ni-NTA and Superdex 200 purified, chemically sulfurated, dimer (300 kDa)
T1 sequence (Q3TYQ9 1-1336): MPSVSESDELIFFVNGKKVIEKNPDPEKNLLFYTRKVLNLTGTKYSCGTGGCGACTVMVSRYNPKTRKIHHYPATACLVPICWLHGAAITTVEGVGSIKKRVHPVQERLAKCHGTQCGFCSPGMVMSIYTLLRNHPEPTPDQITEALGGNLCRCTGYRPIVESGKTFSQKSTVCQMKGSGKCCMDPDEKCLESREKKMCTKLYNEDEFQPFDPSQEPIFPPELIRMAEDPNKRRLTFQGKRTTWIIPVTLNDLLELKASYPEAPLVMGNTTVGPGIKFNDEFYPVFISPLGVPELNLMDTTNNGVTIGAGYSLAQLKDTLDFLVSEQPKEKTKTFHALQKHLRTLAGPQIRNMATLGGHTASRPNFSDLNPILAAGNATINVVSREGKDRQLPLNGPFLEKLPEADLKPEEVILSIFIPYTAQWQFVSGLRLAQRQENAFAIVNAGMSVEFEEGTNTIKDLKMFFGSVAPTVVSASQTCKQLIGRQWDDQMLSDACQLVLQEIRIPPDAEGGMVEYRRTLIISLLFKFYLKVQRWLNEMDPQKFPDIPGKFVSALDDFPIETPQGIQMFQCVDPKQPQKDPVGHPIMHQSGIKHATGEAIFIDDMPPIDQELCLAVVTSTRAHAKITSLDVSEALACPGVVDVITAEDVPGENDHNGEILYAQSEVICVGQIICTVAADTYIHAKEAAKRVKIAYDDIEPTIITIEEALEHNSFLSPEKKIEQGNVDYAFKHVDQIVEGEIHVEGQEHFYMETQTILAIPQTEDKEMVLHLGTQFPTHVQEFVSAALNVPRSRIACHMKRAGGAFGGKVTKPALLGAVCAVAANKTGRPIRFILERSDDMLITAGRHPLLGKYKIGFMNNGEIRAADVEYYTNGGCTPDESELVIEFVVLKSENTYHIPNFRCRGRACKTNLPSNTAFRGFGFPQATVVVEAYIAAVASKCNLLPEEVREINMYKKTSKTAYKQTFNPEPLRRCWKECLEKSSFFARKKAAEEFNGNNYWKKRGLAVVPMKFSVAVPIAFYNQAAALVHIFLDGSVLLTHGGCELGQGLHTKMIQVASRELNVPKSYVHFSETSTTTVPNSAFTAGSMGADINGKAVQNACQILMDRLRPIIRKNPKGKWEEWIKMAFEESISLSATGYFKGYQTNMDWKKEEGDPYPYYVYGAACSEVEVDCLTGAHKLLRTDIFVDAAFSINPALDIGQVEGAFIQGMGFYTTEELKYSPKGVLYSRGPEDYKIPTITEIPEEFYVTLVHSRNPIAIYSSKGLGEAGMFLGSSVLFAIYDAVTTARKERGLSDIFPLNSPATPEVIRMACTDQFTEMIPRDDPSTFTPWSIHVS
In words: DCPIP reduction at […] nm, steady-state kinetics. Type of experiment: biochemical. Conditions: 100 μM DCPIP as electron acceptor, 50 mM Tris-HCl, 1 mM EDTA, pH 8.0, 37°C, corrected to 100% Mo saturation.

As to `CC=O` [acetaldehyde], the Km lay within 4.4 to 4.6 mM.

Regarding `O=Cc1ccc(O)cc1` [4-hydroxybenzaldehyde], for the setting “limit given jointly for mAOX3, mAOX4 and mAOX2”, the Km was under 0.002 mM.
